Literature values in US10045948B2, “Pramipexole-containing transdermal patch for treatment of neurodegenerative disease” (MEDRX CO., LTD., priority 2014, dated 2018).

Details: in vivo

rotigotine
Patients with rash and other types of inflammation at the application site: 40-50%
